What was measured:
[1] = test system: brain levels of soluble Aβ42; assay: In vivo efficacy: brain Aβ42 lowering (ELISA); parameters: species or system mouse; details: 4 h. after administration
Excerpt: (§1) To determine whether acute administration of an Aβ42 peptide lowering agent would reduce Aβ peptide levels in vivo, non-transgenic rodents, e.g. mice or rats were used. Animals treated with the Aβ peptide lowering agent were examined and compared to those untreated or treated with vehicle and brain levels of soluble Aβ42 and total Aβ were quantitated by standard techniques, for example, using ELISA. Treatment periods varied from hours (h) to days and were adjusted based on the results of the Aβ42 lowering once a time course of onset of effect could be established.
(§2) A typical protocol for measuring Aβ42 lowering in vivo is shown but it is only one of many variations that could be used to optimize the levels of detectable Aβ. For example, Aβ peptide lowering compounds were formulated in 20% hydroxypropyl β cyclodextrin. The Aβ peptide lowering agents were administered as a single oral dose (p.o.) or a single subcutaneous dose (s.c.) to overnight fasted animals. After a certain time, usually 2 or 4 h (as indicated in Table 7), the animals were sacrificed and Aβ42 levels were analysed.
(§3) Blood was collected by decapitation and exsanguinations in EDTA-treated collection tubes. Blood was centrifuged at 1900 g for 10 minutes (min) at 4° C. and the plasma recovered and flash frozen for later analysis. The brain was removed from the cranium and hindbrain. The cerebellum was removed and the left and right hemisphere were separated. The left hemisphere was stored at −18° C. for quantitative analysis of test compound levels. The right hemisphere was rinsed with phosphate-buffered saline (PBS) buffer and immediately frozen on dry ice and stored at −80° C. until homogenization for biochemical assays.
(§4) Mouse brains from non-transgenic animals were resuspended in 8 volumes of 0.4% DEA (diethylamine)/50 mM NaCl containing protease inhibitors (Roche-11873580001 or 04693159001) per gram of tissue, e.g. for 0.158 g brain, add 1.264 ml of 0.4% DEA. All samples were homogenized in the FastPrep-24 system (MP Biomedicals) using lysing matrix D (MPBio #6913-100) at 6 m/s for 20 seconds. Homogenates were centrifuged at 221.300×g for 50 min. The resulting high speed supernatants were then transferred to fresh eppendorf tubes. Nine parts of supernatant were neutralized with 1 part 0.5 M Tris-HCl pH 6.8 and used to quantify Aβtotal and Aβ42.
(§5) To quantify the amount of Aβtotal and Aβ42 in the soluble fraction of the brain homogenates, Enzyme-Linked-Immunosorbent-Assays were used. Briefly, the standards (a dilution of synthetic Aβ1-40 and […], Bachem) were prepared in 1.5 ml Eppendorf tube in Ultraculture, with final concentrations ranging from 10000 to 0.3 pg/ml. The samples and standards were co-incubated with HRPO-labelled N-terminal antibody for Aβ42 detection and with the biotinylated mid-domain antibody 4G8 for Aβtotal detection. 50 μl of conjugate/sample or conjugate/standards mixtures were then added to the antibody-coated plate (the capture antibodies selectively recognize the C-terminal end of Aβ42, antibody JRF/cAβ42/26, for Aβ42 detection and the N-terminus of Aβ, antibody JRF/rAβ/2, for Aβtotal detection). The plate was allowed to incubate overnight at 4° C. in order to allow formation of the antibody-amyloid complex. Following this incubation and subsequent wash steps the ELISA for Aβ42 quantification was finished by addition of Quanta Blu fluorogenic peroxidase substrate according to the manufacturer's instructions (Pierce Corp., Rockford, Il.). A reading was performed after 10 to 15 min (excitation 320 nm/emission 420 nm).
In this model at least 20% Aβ42 lowering compared to untreated animals would be advantageous.

[2] = test system: Aβtotal produced and secreted into the medium of human neuroblastoma SKNBE2 cells; assay: Cellular αlisa assay in SKNBE2 cells, Aβtotal; assay type: cell-based; details: SKNBE2 cells expressing hAPP695, 18 hours incubation; for IC50: Homo sapiens, SKNBE2, 18 h, read-out: Cellular αlisa assay in SKNBE2 cells Aβtotal pIC50 (converted)
Method: (§6) Cellular αlisa Assay in SKNBE2 Cells
(§7) In two αlisa assays the levels of Aβtotal and Aβ42 produced and secreted into the medium of human neuroblastoma SKNBE2 cells are quantified. The assay is based on the human neuroblastoma SKNBE2 expressing the wild type Amyloid Precursor Protein (hAPP695). The compounds are diluted and added to these cells, incubated for 18 hours and then measurements of Aβ42 and Aβtotal are taken. Aβtotal and Aβ42 are measured by sandwich αlisa. αlisa is a sandwich assay using biotinylated antibody AbN/25 attached to streptavidin coated beads and antibody Ab4G8 or cAb42/26 conjugated acceptor beads for the detection of Aβtotal and Aβ42 respectively. In the presence of Aβtotal or Aβ42, the beads come into close proximity. The excitation of the Donor beads provokes the release of singlet oxygen molecules that triggers a cascade of energy transfer in the Acceptor beads, resulting in light emission. Light emission is measured after 1 hour incubation (excitation at […] and emission at 615 nm).
(§8) A best-fit curve is fitted by a minimum sum of squares method to the plot of % Controlmin versus compound concentration.

[3] = biological target: recombinant BACE1 protein (Homo sapiens, UniProt P56817); assay: Biochemical FRET based assay; details: recombinant BACE1 1 μg/ml, 120 min, pH 5.0; for IC50: read-out: Biochemical FRET based assay pIC50 (converted)
Excerpt: Biochemical FRET Based Assay
This assay is a Fluorescence Resonance Energy Transfer Assay (FRET) based assay. The substrate for this assay is an APP derived 13 amino acids peptide that contains the ‘Swedish’ Lys-Met/Asn-Leu mutation of the amyloid precursor protein (APP) β-secretase cleavage site. This substrate also contains two fluorophores: (7-methoxycoumarin-4-yl)acetic acid (Mca) is a fluorescent donor with excitation wavelength at 320 nm and emission at 405 nm and 2,4-Dinitrophenyl (Dnp) is a proprietary quencher acceptor. […] Upon cleavage by BACE1, the fluorophore Mca is separated from the quenching group Dnp, restoring the full fluorescence yield of the donor. The increase in fluorescence is linearly related to the rate of proteolysis (Koike H et al. J. Biochem. 1999, 126, 235-242). Briefly in a 384-well format recombinant BACE1 protein in a final concentration of 1 μg/ml is incubated for 120 min at room temperature with 10 μm substrate in incubation buffer (40 mM Citrate buffer pH 5.0, 0.04% PEG, 4% DMSO) in the absence or presence of compound. Next the amount of proteolysis is directly measured by fluorescence measurement at T=0 and T=120 (excitation at 320 nm and emission at 405 nm).

[4] = test system: brain levels of total Aβ; assay: In vivo efficacy: brain Aβtotal lowering (ELISA); parameters: species or system mouse; details: 4 h. after administration
Excerpt: as §1, §2, §3, §4, §5
For Aβtotal detection, a Streptavidine-Peroxidase-Conjugate was added, followed 60 min later by an additional wash step and addition of Quanta Blu fluorogenic peroxidase substrate according to the manufacturer's instructions (Pierce Corp., Rockford, Il.). A reading was performed after 10 to 15 min (excitation 320 nm/emission 420 nm).

[5] = test system: Aβ42 produced and secreted into the medium of human neuroblastoma SKNBE2 cells; assay: Cellular αlisa assay in SKNBE2 cells, Aβ42; assay type: cell-based; details: SKNBE2 cells expressing hAPP695, 18 hours incubation; for IC50: Homo sapiens, SKNBE2, 18 h, read-out: Cellular αlisa assay in SKNBE2 cells Aβ42 pIC50 (converted)
Method: as §6, §7, §8

Sequence of recombinant BACE1 protein (P56817 46-501): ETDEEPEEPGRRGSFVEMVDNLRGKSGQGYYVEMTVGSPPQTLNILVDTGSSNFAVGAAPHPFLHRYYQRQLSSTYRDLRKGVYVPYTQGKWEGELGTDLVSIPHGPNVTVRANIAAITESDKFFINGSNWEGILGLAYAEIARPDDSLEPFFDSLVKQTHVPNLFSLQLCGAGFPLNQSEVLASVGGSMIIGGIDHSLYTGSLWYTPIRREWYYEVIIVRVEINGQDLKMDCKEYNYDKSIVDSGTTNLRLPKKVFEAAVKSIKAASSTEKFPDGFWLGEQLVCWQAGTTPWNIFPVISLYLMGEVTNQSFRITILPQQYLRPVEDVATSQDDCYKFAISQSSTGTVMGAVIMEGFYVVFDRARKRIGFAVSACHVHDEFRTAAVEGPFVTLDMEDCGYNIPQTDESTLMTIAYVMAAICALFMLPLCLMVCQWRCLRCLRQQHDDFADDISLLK

Row | IC50 [3] [nM] | Cellular αlisa assay in SKNBE2 cells Aβtotal pIC50 [2] | Cellular αlisa assay in SKNBE2 cells Aβ42 pIC50 [5] | Biochemical FRET based assay pIC50 [3] | SMILES | other results
1 | 69.2 |  |  |  | COc1cnc(C(=O)Nc2ccc(F)c([C@]3(C)Cn4nc(C(F)F)cc4C(N)=N3)c2)cn1 [Compound 28, (R)-5-methoxy-pyrazine-2-carboxylic acid [3-(4-amino-2-difluoromethyl-6-methyl-6,7-dihydro-pyrazolo[1,5-a]pyrazin-6-yl)-4-fluoro-phenyl]-amide] | Aβ42 (% Ctrl)_Mean ([1]; 10 mg/kg p.o.): 39 % Ctrl; IC50 [2]: 6.31 nM; Aβtotal (% Ctrl)_Mean ([4]; 10 mg/kg p.o.): 50 % Ctrl; IC50 [5]: 5.25 nM
2 | 9770 | 5.13 | 5.28 |  | COc1cnc(C(=O)Nc2ccc(F)c(C3(C(F)F)Cn4nccc4C(N)=N3)c2)cn1 (single isomer, unassigned) [Compound 19, (S*)-5-methoxy-pyrazine-2-carboxylic acid [3-(4-amino-6-difluoromethyl-6,7-dihydro-pyrazolo[1,5-a]pyrazin-6-yl)-4-fluoro-phenyl]-amide] | 
3 | 1050 | 7.74 | 7.66 |  | CC1(c2cc(NC(=O)c3ncc(Cl)cc3Cl)ccc2F)Cn2nccc2C(N)=N1 (single isomer, unassigned) [Compound 16, (S*)-3,5-dichloro-pyridine-2-carboxylic acid [3-(4-amino-6-methyl-6,7-dihydro-pyrazolo[1,5-a]pyrazin-6-yl)-4-fluoro-phenyl]-amide] | 
4 |  | 8.69 | 8.66 |  | CC1(c2cccc(NC(=O)c3ccc(C#N)cn3)c2)Cn2nccc2C(N)=N1 (single isomer, unassigned) [Compound 7, (R*)-5-cyano-pyridine-2-carboxylic acid [3-(4-amino-6-methyl-6,7-dihydro-pyrazolo[1,5-a]pyrazin-6-yl)-phenyl]-amide] | Aβ42 (% Ctrl)_Mean ([1]; 30 mg/kg p.o.): 88 % Ctrl; Aβtotal (% Ctrl)_Mean ([4]; 30 mg/kg p.o.): 101 % Ctrl
5 | 22.4 | 7.54 | 7.52 |  | COc1cnc(C(=O)Nc2ccc(F)c(C3(C(F)F)Cn4nccc4C(N)=N3)c2)cn1 (single isomer, unassigned) [Compound 18, (R*)-5-methoxy-pyrazine-2-carboxylic acid [3-(4-amino-6-difluoromethyl-6,7-dihydro-pyrazolo[1,5-a]pyrazin-6-yl)-4-fluoro-phenyl]-amide] | 
6 |  | 6.07 | 6.03 | 5.86 | COc1cnc(C(=O)Nc2ccc(F)c(C3(C)Cn4ncc(Cl)c4C(N)=N3)c2)cn1 (stereo not drawn) [Compound 37] | 
7 | 49 |  |  |  | C[C@@]1(c2cc(NC(=O)c3ccc(C#N)cn3)ccc2F)Cn2nc(C#N)cc2C(N)=N1 [Compound 26, (R)-5-cyano-pyridine-2-carboxylic acid [3-(4-amino-2-cyano-6-methyl-6,7-dihydro-pyrazolo[1,5-a]pyrazin-6-yl)-4-fluoro-phenyl]-amide] | IC50 [2]: 1.45 nM; IC50 [5]: 1.48 nM
8 |  | 7.78 | 7.83 | 7.23 | Cc1nc(C(=O)Nc2ccc(F)c(C3(C)Cn4ncc(F)c4C(N)=N3)c2)co1 (stereo not drawn) [Compound 34] | 
9 |  | 7.67 | 7.69 | 6.93 | Cc1nn2c(c1F)C(N)=NC(C)(c1cc(NC(=O)c3ccc(F)cn3)ccc1F)C2 (racemic) [Compound 41] | 
10 | 83.2 |  |  |  | CC1(c2cccc(NC(=O)c3ccc(Cl)cn3)c2)Cn2nccc2C(N)=N1 (racemic) [Compound 2, rac-5-chloro-pyridine-2-carboxylic acid [3-(4-amino-6-methyl-6,7-dihydro-pyrazolo[1,5-a]pyrazin-6-yl)-phenyl]-amide] | IC50 [2]: 2.45 nM; IC50 [5]: 3.24 nM
11 |  | 7.30 | 7.33 | 6.91 | Cc1nc(C(=O)Nc2ccc(F)c(C3(C)Cn4ncc(F)c4C(N)=N3)c2)c(C(F)(F)F)o1 (stereo not drawn) [Compound 35] | 
12 |  | 7.53 | 7.56 | 7.04 | Cc1nc(C(=O)Nc2ccc(F)c(C3(C)Cn4ncc(F)c4C(N)=N3)c2)c(C)o1 (stereo not drawn) [Compound 36] | 
13 | 57.5 |  |  |  | COc1cnc(C(=O)Nc2ccc(F)c(C3(C(F)F)Cn4nccc4C(N)=N3)c2)cn1 (racemic) [Compound 17, rac-5-methoxy-pyrazine-2-carboxylic acid [3-(4-amino-6-difluoromethyl-6,7-dihydro-pyrazolo[1,5-a]pyrazin-6-yl)-4-fluoro-phenyl]-amide] | IC50 [2]: 33.1 nM; IC50 [5]: 39.8 nM
14 | > 30200 | <5 | <5 |  | NC1=NC(c2cc(NC(=O)c3ccc(F)cn3)ccc2F)(C(F)F)Cn2nccc21 (single isomer, unassigned) [Compound 21, (S*)-5-fluoro-pyridine-2-carboxylic acid [3-(4-amino-6-difluoromethyl-6,7-dihydro-pyrazolo[1,5-a]pyrazin-6-yl)-4-fluoro-phenyl]-amide] | 
15 |  | 8.70 | 8.72 | 7.53 | Cc1nc(C(=O)Nc2ccc(F)c(C3(C)Cn4nc(C#N)cc4C(N)=N3)c2)co1 (stereo not drawn) [Compound 43] | 
